The target of experiment [1] is T1, Leucine-Rich Repeat Kinase 2 (LRRK2) WDR40 domain (Homo sapiens, UniProt Q5S007).
T1 construct: WDR40 domain
T1 sequence (Q5S007 2142-2527 limits assumed): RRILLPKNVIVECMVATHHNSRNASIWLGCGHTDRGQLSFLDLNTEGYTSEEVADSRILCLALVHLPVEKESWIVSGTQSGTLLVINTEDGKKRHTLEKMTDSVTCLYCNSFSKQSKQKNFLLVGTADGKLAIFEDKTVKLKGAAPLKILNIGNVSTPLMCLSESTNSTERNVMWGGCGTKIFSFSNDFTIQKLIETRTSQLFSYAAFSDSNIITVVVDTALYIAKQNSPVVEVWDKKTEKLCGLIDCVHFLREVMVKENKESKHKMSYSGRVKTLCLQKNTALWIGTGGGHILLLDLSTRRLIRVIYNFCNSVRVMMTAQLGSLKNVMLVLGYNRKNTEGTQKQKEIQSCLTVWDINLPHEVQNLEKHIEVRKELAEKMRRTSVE
Kind of experiment: SPR (not confirmed by orthogonal assays). The experiment is classed as binding.

Experiment [2] has as its target T1, Leucine-Rich Repeat Kinase 2 (LRRK2) WDR40 domain. Kind of experiment: SPR; weak DSF stabilization (ΔTm […] °C). The class given is binding.

Experimental findings from publication PMC12465524, “Cache: Utilizing ultra-large library screening in Rosetta to identify novel binders of the WD-repeat domain of Leucine-Rich Repeat Kinase 2” (Journal of Cheminformatics, 2025) are described below.

The term Kd denotes the free concentration of one partner at which half of the binding sites on the other are occupied at equilibrium, for simple one-to-one binding. Low readings indicate a tighter complex, high ones a looser complex.

`O=c1[nH]c2ccc(CNc3cccc(-n4cnnn4)c3)cc2[nH]1` [B, compound B] registered a Kd in experiment [1] of 35 µM.

As to `Cn1nnc(-c2ccccc2)c1CNc1cccc(-n2cnnn2)c1` [A, N-[(1-methyl-4-phenyl-1 H-1,2,3-triazol-5-yl)methyl]-3-(1 H-1,2,3,4-tetrazol-1-yl)-aniline], binding in experiment [1] was put at a Kd of 59 µM.

The compound `CSc1ccc(CNc2cccc(-n3cnnn3)c2)cc1` [D, N-[4-(methylsulfanyl)phenyl]methyl-3-(1 H-1,2,3,4-tetrazol-1-yl)aniline] had a Kd in experiment [2] of 100 µM.
